Tests used:
[1] = comparison; cited from earlier work
[2] = biological target: T1, Klebsiella pneumoniae carbapenemases (KPC), KPC-2 (Klebsiella pneumoniae, UniProt Q9F663); assay: Detection of KPC carbapenemase by fluorogenic carbapenem after physical disruption by sonication; type: biochemical; details: cells lysed by sonication, PBS, 100 μg carbapenem, room temperature for 5 min
T1 construct: endogenous in cells; host or cells: Klebsiella pneumoniae clinical strain (KPC-2, Heidelberg), lysed by sonication
T1 sequence (Q9F663 25-293 limits assumed): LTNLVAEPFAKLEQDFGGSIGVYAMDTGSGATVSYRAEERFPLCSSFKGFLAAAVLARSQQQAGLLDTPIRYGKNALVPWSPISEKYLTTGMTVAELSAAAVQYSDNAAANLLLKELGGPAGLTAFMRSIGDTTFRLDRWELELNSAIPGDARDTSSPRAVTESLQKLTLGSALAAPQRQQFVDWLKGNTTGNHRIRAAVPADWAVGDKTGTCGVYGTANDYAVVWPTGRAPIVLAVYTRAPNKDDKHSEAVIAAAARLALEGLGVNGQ
Protocol: Detection of Klebsiella pneumoniae carbapenemases (KPC) by fluorogenic potassium-(4S,5R,6S)-3-(4-acetyl-phenyl)-6-((1′R)-hydroxy-ethyl)-4-methyl-7-oxo-1-aza-bicyclo[3.2.0]hept-2-ene-2-carboxylate after physical disruption by sonication
(§1) Bacterial strain Klebsiella pneumoniae (producing KPC-2, Heidelberg) was grown over night at 37° C. (220 rpm) in Mueller-Hinton-Broth (10 ml) using a 45-ml-Falcon tube, harvested by centrifugation at 13.000 rpm (2 min, 1 ml for analytical studies, McFarland 10), washed once with PBS (1 ml), and resuspended in PBS (500 μl). Subsequently the cells were lysed by sonication with a Bandelin Sonopuls (5×15 s), pulsed at 80% max. power. Further PBS (500 μl) and fluorogenic carbapenem (100 μg) were added.

[3] = biological target: T1, Klebsiella pneumoniae carbapenemases (KPC), KPC-2; assay: Detection of KPC carbapenemase during sonication with glass beads; type: biochemical; details: sonication with glass beads in ultrasound bath, 100 μg, treatment for 45 min
Protocol: Detection of Klebsiella pneumoniae carbapenemases (KPC) by fluorogenic potassium-(4S,5R,6S)-3-(4-acetyl-phenyl)-6-((1′R)-hydroxy-ethyl)-4-methyl-7-oxo-1-aza-bicyclo[3.2.0]hept-2-ene-2-carboxylate during physical disruption by sonication with glass beads
Bacterial strain Klebsiella pneumoniae (producing KPC-2, Heidelberg) was grown over night at 37° C. in Mueller-Hinton-Broth (10 ml). To a sample (1 ml, McFarland 0.5) were added fluorogenic carbapenem (100 μg) and glass beads (100 mg, Sigma-Aldrich, G9018, 150-212 μm, unwashed) using a 5-ml-glass-tube with a plane bottom. The cells were lysed by sonication with a commercial available ultrasound bath.

[4] = biological target: T2, Oxa-48-carbapenemases (Klebsiella pneumoniae, UniProt Q6XEC0); assay: Detection of inducible (Oxa-type) carbapenemases after sonication; type: biochemical, Escherichia coli
T2 construct: endogenous in cells; host or cells: Escherichia coli strain (producing Oxa-48, Heidelberg), with or without imipenem induction, lysed by sonication
T2 sequence (Q6XEC0 23-265 limits assumed): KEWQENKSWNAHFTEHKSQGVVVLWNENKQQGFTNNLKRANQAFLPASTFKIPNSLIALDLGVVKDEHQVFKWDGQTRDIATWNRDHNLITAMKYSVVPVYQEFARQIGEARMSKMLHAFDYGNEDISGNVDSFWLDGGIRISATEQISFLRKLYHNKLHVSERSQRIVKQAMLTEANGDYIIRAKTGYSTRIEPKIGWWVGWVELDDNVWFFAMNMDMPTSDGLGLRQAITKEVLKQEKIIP
Protocol: Detection of inducible (Oxa-type) carbapenemases of Escherichia coli by fluorogenic potassium-(4S,5R,6S)-3-(4-acetyl-phenyl)-6-((1′R)-hydroxy-ethyl)-4-methyl-7-oxo-1-aza-bicyclo[3.2.0]hept-2-ene-2-carboxylate after physical disruption by sonication
as §1, with “Escherichia cog” for “Klebsiella pneumoniae”, “Oxa-48,” for “KPC-2,”, “tube. A sample (1 ml, McFarland 10) was diluted in Mueller-Hinton-Broth (10 ml) and incubated with Imipenem (2 μg/ml) for 4 h using a 45-ml-Falcon tube. After” for “tube, harvested by”, “studies), the sample was” for “studies, McFarland 10),”, “ml)” for “ml),”

[5] = system: Klebsiella pneumoniae (VIM-1, Heidelberg); assay: Detection of metallo-carbapenemases in PBS during incubation; type: cell-based; details: 100 μg, five drops inoculum McFarland 0.5, over night at 37° C.
Protocol: (§2) Detection of metallo-carbapenemases by fluorogenic potassium-(4S,5R,6S)-3-(4-acetyl-phenyl)-6-((1′R)-hydroxy-ethyl)-4-methyl-7-oxo-1-aza-bicyclo[3.2.0]hept-2-ene-2-carboxylate in PBS during incubation
(§3) Bacterial strains Klebsiella pneumoniae (VIM-1, Heidelberg) and Pseudomonas aeruginosa (IMP, Heidelberg) were grown over night at 37° C. in Mueller-Hinton-Broth (10 ml). To each PBS (1 ml) of fluorogenic carbapenem (100 μg) were added five drops of corresponding inoculum (McFarland 0.5).

[6] = system: Pseudomonas aeruginosa (IMP, Heidelberg); assay: as above; type: cell-based; details: 100 μg, five drops inoculum McFarland 0.5, over night at 37° C.
Protocol: as §2, §3

[7] = system: Escherichia coli (ESBL-1, Heidelberg); assay: Detection of carbapenemases during incubation in Mueller-Hinton-Broth; type: cell-based; details: ESBL-producer, McFarland 0.5, 100 μg, over night at 37° C.
Protocol: (§4) Detection of carbapenemases by fluorogenic potassium-(4S,5R,6S)-3-(4-acetyl-phenyl)-6-((1′R)-hydroxy-ethyl)-4-methyl-7-oxo-1-aza-bicyclo[3.2.0]hept-2-ene-2-carboxylate during incubation
(§5) Bacterial strains Escherichia coli (ESBL-1, Heidelberg), Escherichia coli (ESBL-2, Heidelberg), Escherichia coli (Oxa-48), Klebsiella pneumoniae (KPC-2, Heidelberg) Klebsiella pneumoniae (VIM-1, Heidelberg), Pseudomonas aeruginosa (GES-2, Heidelberg), Pseudomonas aeruginosa (IMP, Heidelberg) and Pseudomonas aeruginosa (VIM-2, Heidelberg) were grown over night at 37° C. in Mueller-Hinton-Broth (10 ml). To each sample (1 ml, McFarland 0.5) was added fluorogenic carbapenem (100 μg).

[8] = system: Escherichia coli (ESBL-2, Heidelberg); assay: as above; type: cell-based; details: ESBL-producer, McFarland 0.5, 100 μg, over night at 37° C.
Protocol: as §4, §5

[9] = system: Escherichia coli (Oxa-48); assay: as above; type: cell-based; details: McFarland 0.5, 100 μg, over night at 37° C.
Protocol: as §4, §5

[10] = system: Klebsiella pneumoniae (KPC-2, Heidelberg); assay: as above; type: cell-based; details: McFarland 0.5, 100 μg, over night at 37° C.
Protocol: as §4, §5

[11] = system: Klebsiella pneumoniae (VIM-1, Heidelberg); assay: as above; type: cell-based; details: McFarland 0.5, 100 μg, over night at 37° C.
Protocol: as §4, §5

[12] = system: Pseudomonas aeruginosa (GES-2, Heidelberg); assay: as above; type: cell-based; details: McFarland 0.5, 100 μg, over night at 37° C.
Protocol: as §4, §5

[13] = system: Pseudomonas aeruginosa (IMP, Heidelberg); assay: as above; type: cell-based; details: McFarland 0.5, 100 μg, over night at 37° C.
Protocol: as §4, §5

[14] = system: Pseudomonas aeruginosa (VIM-2, Heidelberg); assay: as above; type: cell-based; details: McFarland 0.5, 100 μg, over night at 37° C.
Protocol: as §4, §5

[15] = system: Escherichia coli (ESBL-1, Heidelberg); assay: Detection of carbapenemases during optimized incubation; type: cell-based; details: ESBL-producer, pre-incubated 6 h at 37° C. (220 rpm), 100 μg, over night at 37° C.
Protocol: (§6) Detection of carbapenemases by fluorogenic potassium-(4S,5R,6S)-3-(4-acetyl-phenyl)-6-((1′R)-hydroxy-ethyl)-4-methyl-7-oxo-1-aza-bicyclo[3.2.0]hept-2-ene-2-carboxylate during optimized incubation
(§7) Bacterial strains Escherichia coli (ESBL-1, Heidelberg), Escherichia coli (ESBL-2, Heidelberg), Escherichia coli (Oxa-48), Klebsiella pneumoniae (KPC-2, Heidelberg) Klebsiella pneumoniae (VIM-1, Heidelberg), Pseudomonas aeruginosa (GES-2, Heidelberg), Pseudomonas aeruginosa (IMP, Heidelberg), Pseudomonas aeruginosa (VIM-2, Heidelberg) were incubated for 6 h at 37° C. (220 rpm) in Mueller-Hinton-Broth (10 ml) using 45-ml-Falcon-tubes. To each sample (1 ml) was added fluorogenic carbapenem (100 μg) using 15-ml-Falcon-tubes.

[16] = system: Escherichia coli (ESBL-2, Heidelberg); assay: as above; type: cell-based; details: ESBL-producer, pre-incubated 6 h at 37° C. (220 rpm), 100 μg, over night at 37° C.
Protocol: as §6, §7

[17] = system: Escherichia coli (Oxa-48); assay: as above; type: cell-based; details: pre-incubated 6 h at 37° C. (220 rpm), 100 μg, over night at 37° C.
Protocol: as §6, §7

[18] = system: Klebsiella pneumoniae (KPC-2, Heidelberg); assay: as above; type: cell-based; details: pre-incubated 6 h at 37° C. (220 rpm), 100 μg, over night at 37° C.
Protocol: as §6, §7

[19] = system: Klebsiella pneumoniae (VIM-1, Heidelberg); assay: as above; type: cell-based; details: pre-incubated 6 h at 37° C. (220 rpm), 100 μg, over night at 37° C.
Protocol: as §6, §7

[20] = system: Pseudomonas aeruginosa (GES-2, Heidelberg); assay: as above; type: cell-based; details: pre-incubated 6 h at 37° C. (220 rpm), 100 μg, over night at 37° C.
Protocol: as §6, §7

[21] = system: Pseudomonas aeruginosa (IMP, Heidelberg); assay: as above; type: cell-based; details: pre-incubated 6 h at 37° C. (220 rpm), 100 μg, over night at 37° C.
Protocol: as §6, §7

[22] = system: Pseudomonas aeruginosa (VIM-2, Heidelberg); assay: as above; type: cell-based; details: pre-incubated 6 h at 37° C. (220 rpm), 100 μg, over night at 37° C.
Protocol: as §6, §7

[23] = system: Klebsiella pneumoniae (KPC-2, Heidelberg); assay: Detection of carbapenemases during chemical lysis; type: biochemical; details: McFarland 10 in detergent buffer solution, 100 μg, 6 h at 37° C.
Protocol: (§8) Detection of carbapenemases by fluorogenic potassium-(4S,5R,6S)-3-(4-acetyl-phenyl)-6-((1′R)-hydroxy-ethyl)-4-methyl-7-oxo-1-aza-bicyclo[3.2.0]hept-2-ene-2-carboxylate during chemical lysis
(§9) Bacterial strains Pseudomonas aeruginosa DSM 1117 (no resistance), Pseudomonas aeruginosa (VIM-2, Heidelberg) and Klebsiella pneumoniae (KPC-2, Heidelberg) were incubated over night at 37° C. on Mueller-Hinton-Agar plates. A sample of each strain was suspended (McFarland 10) in primary-amine-free buffer solution (1 ml) of a detergent from Merck (Germany). Fluorogenic carbapenem (100 μg) was added.

[24] = system: Pseudomonas aeruginosa (VIM-2, Heidelberg); assay: Detection of carbapenemases during chemical lysis; type: biochemical; details: McFarland 10 in detergent buffer solution, 100 μg, 6 h at 37° C.
Protocol: as §8, §9

[25] = system: Pseudomonas aeruginosa DSM 1117 (no resistance); assay: Detection of carbapenemases during chemical lysis; type: biochemical; details: McFarland 10 in detergent buffer solution, 100 μg, 6 h at 37° C.
Protocol: as §8, §9

Substance: Green Fluorescent Protein
- Stokes shift [1]: 114 nm

Substance: potassium-(4S,5R,6S)-3-(4-acetyl-phenyl)-6-((1′R)-hydroxy-ethyl)-4-methyl-7-oxo-1-aza-bicyclo[3.2.0]hept-2-ene-2-carboxylate [Example 1]
- disappearance of the green-yellow fluorescence colour (UV light λ=366 nm) [2]: disappearance of the green-yellow fluorescence colour
- disappearance of the green-yellow fluorescence colour (λ=366 nm) [3]: disappearance of the green-yellow fluorescence colour
- disappearance of the green-yellow fluorescence colour (UV light λ=366 nm) ([4]; induced with Imipenem (2 μg/ml) for 4 h, lysed by sonication, PBS, room temperature for 5 min): disappearance of the green-yellow fluorescence colour
- change in fluorescence colour ([4]; non-induced sample, within 30 minutes): did not show any change in fluorescence colour
- disappearance of the green-yellow fluorescence colour (UV light λ=366 nm) [5]: disappearance of the green-yellow fluorescence colour
- disappearance of the green-yellow fluorescence colour (UV light λ=366 nm) [6]: disappearance of the green-yellow fluorescence colour
- change in colour (fluorescence, UV light λ=366 nm) [7]: did not show any change in colour
- change in colour (fluorescence, UV light λ=366 nm) [8]: did not show any change in colour
- disappearance of the green-yellow fluorescence colour (UV light λ=366 nm) [9]: disappearance of the green-yellow fluorescence colour
- disappearance of the green-yellow fluorescence colour (UV light λ=366 nm) [10]: disappearance of the green-yellow fluorescence colour
- disappearance of the green-yellow fluorescence colour (UV light λ=366 nm) [11]: disappearance of the green-yellow fluorescence colour
- disappearance of the green-yellow fluorescence colour (UV light λ=366 nm) [12]: disappearance of the green-yellow fluorescence colour
- disappearance of the green-yellow fluorescence colour (UV light λ=366 nm) [13]: disappearance of the green-yellow fluorescence colour
- disappearance of the green-yellow fluorescence colour (UV light λ=366 nm) [14]: disappearance of the green-yellow fluorescence colour
- change in fluorescence colour (λ=366 nm) [15]: did not show any change in fluorescence colour
- change in fluorescence colour (λ=366 nm) [16]: did not show any change in fluorescence colour
- disappearance of the green-yellow fluorescence colour (λ=366 nm) [17]: disappearance of the green-yellow fluorescence colour
- disappearance of the green-yellow fluorescence colour (λ=366 nm) [18]: disappearance of the green-yellow fluorescence colour
- disappearance of the green-yellow fluorescence colour (λ=366 nm) [19]: disappearance of the green-yellow fluorescence colour
- disappearance of the green-yellow fluorescence colour (λ=366 nm) [20]: disappearance of the green-yellow fluorescence colour
- disappearance of the green-yellow fluorescence colour (λ=366 nm) [21]: disappearance of the green-yellow fluorescence colour
- disappearance of the green-yellow fluorescence colour (λ=366 nm) [22]: disappearance of the green-yellow fluorescence colour
- disappearance of the green-yellow fluorescence colour (λ=366 nm) [23]: disappearance of the green-yellow fluorescence colour
- disappearance of the green-yellow fluorescence colour (λ=366 nm) [24]: disappearance of the green-yellow fluorescence colour
- change in fluorescence colour (λ=366 nm) [25]: did not show any change in fluorescence colour

Reference: patent US9969737B2, “Fluorescent carbapenems” (Hans Rudolf Pfaendler, priority 2010, dated 2018)
